This note sets out measurements from ChEMBL document CHEMBL1201862, “PubChem BioAssay data set” (2004).

Assay in all cases: NCI anticancer screen, dose series, 48 h
Test [1] deals with EKVX.
Test [2] relates to NCI-H23.
Test [3] deals with 786-0.
Test [4] has as its system OVCAR-3.
For test [5], the system named is LOX IMVI.
Test [6] concerns SF-268.
Test [7] concerns OVCAR-8.
The subject of test [8] is MDA-MB-231.
For test [9], the system named is HCT-116.
For test [10], the system named is SK-OV-3.
The subject of test [11] is COLO 205.
For test [12], the system named is A549.
Test [13] concerns HT-29.
Test [14] deals with MOLT-4.
The test system of test [15] is CAKI-1.
The test system of test [16] is KM12.
The test system of test [17] is U-251.
In test [18] the test system is UACC-62.
In test [19] the test system is MDA-MB-435.

Structures are written as SMILES.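 48-hour exposure; five concentrations; linearly interpolated endpoints. At the GI50, growth is halved.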 Calls of active or inactive are those of the source. Rule as the data show it: active = GI50 up to about 1.1 µM and inactive = higher.

`COC(=O)c1nc2n(n1)-c1ccccc1C(=O)N(Cc1ccccc1)C2`: the GI50 in test [1], in test [2], in test [3], in test [4], in [5] and in test [6] was > 100 µM (inactive) each time. In addition, the GI50 in test [7], in [8], in test [9], in test [10], in test [11] and in test [12] was > 100 µM (inactive) throughout. The GI50 in [13], in test [14], in test [15], in test [16], in test [17] and in [18] was > 100 µM (inactive) each time. Moreover, the GI50 in [19] is > 100 µM (inactive).

As to `CC1CCC2(OC1)OC1CC3C4CC=C5CC(OC6OC(CO)C(OC7OC(C)C(OC8OC(C)C(O)C(O)C8O)C(O)C7O)C(O)C6OC6OC(C)C(O)C(O)C6O)CCC5(C)C4CCC3(C)C1C2C` (centres undefined), the GI50 in [1] is 0.757 µM (active); in test [2] it was 1.66 µM (inactive); in test [3], 1.07 µM (active); in [4], 1.75 µM (inactive); in test [5] it was 0.185 µM (active); in test [6] it was 0.56 µM (active). In addition, the GI50 in [7] was 0.326 µM (active); in test [8], 0.0628 µM (active); in [9], 0.521 µM (active); in [10], 1.07 µM (active); in [11], 1.28 µM (inactive); in test [12], 0.312 µM (active). For the same compound, the GI50 was 1 µM (active) in [13]; 0.237 µM (active) in test [14]; 1.29 µM (inactive) in test [15]; 0.16 µM (active) in test [16]; 0.65 µM (active) in [17]; 0.311 µM (active) in test [18]. Also, the GI50 in test [19] is 0.281 µM (active).

On to `Cc1ccnc(NS(=O)(=O)c2ccc(NC(=O)c3ccc4nc5ccccc5c(Nc5ccc(S(=O)(=O)Nc6nccc(C)n6)cc5)c4c3)cc2)n1`, for which the GI50 in test [1] is > 100 µM (inactive); in [2], > 100 µM (inactive); in test [3], > 100 µM (inactive); in [4] it was 33.6 µM (inactive); in test [5] it was 45.3 µM (inactive); in test [6], 28.3 µM (inactive). For the same compound, the GI50 in test [7] is > 100 µM (inactive); in test [8] it was 40.7 µM (inactive); in test [9], 59 µM (inactive); in [10] it was > 100 µM (inactive); in test [11], > 100 µM (inactive); in [12], > 100 µM (inactive). Further, the GI50 in test [13] was > 100 µM (inactive); in test [14], 39.9 µM (inactive); in test [15], > 100 µM (inactive); in test [16] it was 29 µM (inactive); in test [17], 19.8 µM (inactive); in test [18], 38.3 µM (inactive). In addition, the GI50 in test [19] is 66.1 µM (inactive).

With `CCOP(=O)(/C=C/n1cc(C)c(=O)[nH]c1=O)OCC`, the GI50 in test [1], in test [2], in test [3], in test [4], in test [5] and in test [6] was > 100 µM (inactive) in each case. The GI50 in [7], in [8], in test [9], in test [10], in test [11] and in [12] was > 100 µM (inactive) throughout. For the same compound, the GI50 in test [13], in test [14], in [15], in test [16], in test [17] and in test [18] was > 100 µM (inactive) in each case. Also, the GI50 in [19] was > 100 µM (inactive).

For the compound `c1ccc(C(OCCN2CC3CCC(C2)N3)c2ccccc2)cc1`, the GI50 was > 100 µM (inactive) in test [1]; > 100 µM (inactive) in test [2]; 41 µM (inactive) in [3]; 45 µM (inactive) in [4]; 66.4 µM (inactive) in [5]; > 100 µM (inactive) in test [6]. Also, the GI50 in test [7] was > 100 µM (inactive); in test [8], > 100 µM (inactive); in test [9], 40.4 µM (inactive); in test [10], > 100 µM (inactive); in [11], 19 µM (inactive); in test [12], > 100 µM (inactive). The GI50 in [13] was 31.6 µM (inactive); in test [14] it was 74.8 µM (inactive); in [15] it was > 100 µM (inactive); in test [16], 54 µM (inactive); in [17], > 100 µM (inactive); in test [18], 27.7 µM (inactive). Also, the GI50 in test [19] is 35.9 µM (inactive).

For the compound `COc1cccc(C23CCCC(C2)NCC3Br)c1OC` (centres undefined), the GI50 in test [1] was 28.4 µM (inactive); in test [2], 15.3 µM (inactive); in test [3] it was 81.3 µM (inactive); in [4], 34.5 µM (inactive); in [5], 37.5 µM (inactive); in test [6], 23 µM (inactive). Moreover, the GI50 in test [7] is 11.2 µM (inactive); in test [8] it was > 100 µM (inactive); in [9], 30.8 µM (inactive); in [10], > 100 µM (inactive); in test [11] it was 11.9 µM (inactive); in test [12] it was 3.66 µM (inactive). In addition, the GI50 in [13] is 37.3 µM (inactive); in test [14], 45 µM (inactive); in test [15], 41.6 µM (inactive); in test [16], 35.1 µM (inactive); in [17], 28.4 µM (inactive); in test [18], 21.4 µM (inactive). Further, the GI50 in test [19] was 39 µM (inactive).

Regarding `Cc1[nH]c2[nH]c(=S)nc(NC(N)=S)c2c1Cc1ccccc1`, the GI50 in [1] was 48.4 µM (inactive); in test [2], 29.7 µM (inactive); in [3] it was 26.8 µM (inactive); in test [4] it was 28 µM (inactive); in test [5], 19.6 µM (inactive); in test [6], 43.8 µM (inactive). The GI50 in test [7] was 51.9 µM (inactive); in test [8], 28.1 µM (inactive); in [9] it was 31.8 µM (inactive); in test [10], 76 µM (inactive); in [11], 15.1 µM (inactive); in [12] it was 75.5 µM (inactive). Besides, the GI50 in test [13] was 22.3 µM (inactive); in [14], 23.4 µM (inactive); in test [15], 98.6 µM (inactive); in [16], 16.4 µM (inactive); in test [17], 43.9 µM (inactive); in test [18], 29.9 µM (inactive). In test [19], the GI50 was 17.3 µM (inactive).

`CC(C)=CCNc1ncnc2[nH]cnc12`: the GI50 in [1], in test [2], in test [3], in [4], in test [5] and in [6] was > 100 µM (inactive) in each case. Besides, the GI50 in test [7], in test [8], in test [9], in [10], in test [11] and in [12] was > 100 µM (inactive) in each case. Also, the GI50 in test [13] was > 100 µM (inactive); in test [14], > 100 µM (inactive); in test [15] it was > 100 µM (inactive); in test [16], 99.8 µM (inactive); in test [17] it was > 100 µM (inactive); in test [18], 88.5 µM (inactive). In addition, the GI50 in test [19] was > 100 µM (inactive).

In the case of `COP(=O)(OC)C(NC=O)P(=O)(OC)OC`, the GI50 in test [1], in test [2], in test [3], in [4], in [5] and in [6] was > 100 µM (inactive) in each case. The GI50 in test [7], in test [8], in [9], in test [10], in test [11] and in test [12] was > 100 µM (inactive) in each case. Also, the GI50 in [13], in test [14], in test [15], in test [17], in [18] and in [19] was > 100 µM (inactive) in each case.

As for `N#Cc1c(O)nc2[nH]nc(/N=N\c3c(O)ccc4ccccc34)c2c1-c1ccc(Cl)cc1`, the GI50 in test [1] is 0.219 µM (active); in test [2], 0.47 µM (active); in [3] it was 0.0689 µM (active); in [4], 0.0667 µM (active); in test [5] it was 0.057 µM (active); in [6] it was 0.0682 µM (active). For the same compound, the GI50 in test [7] is 0.233 µM (active); in test [8], 0.23 µM (active); in test [9], 0.114 µM (active); in test [10] it was 0.187 µM (active); in test [11], 0.433 µM (active); in [12] it was 0.312 µM (active). Also, the GI50 was 0.123 µM (active) in [13]; 0.171 µM (active) in test [14]; 0.282 µM (active) in test [15]; 0.403 µM (active) in test [16]; 0.124 µM (active) in [17]; 0.103 µM (active) in test [18]. Also, the GI50 in test [19] is 0.789 µM (active).
